Drawing on US5955426A, “Cyclic hexapeptide somatostatin analogues” (Diatide, Inc., priority 1997, dated 1999), this text covers Ki for six compounds.

Each structure is given as a SMILES string. Square brackets hold non-standard residues; d marks the D form. Peptide text beside a SMILES is read from it. * marks the point of attachment. X11 = NCCCC[C@H](NC(=O)C*)C(=O)NCCCC[C@H](N)C(=O)NCC(=O)N[C@@H](CS)C(N)=O; X13 = CC(=O)NCSC[C@H](NC(=O)CNC(=O)[C@H](CSCNC(C)=O)NC(=O)C*)C(N)=O; X7 = NC(=O)[C@H](CS)NC(=O)CNC(=O)[C@@H](N)CCCCNC(=O)C*; X5 = O=C(CNC(=O)[C@H](CS)NC(=O)C*)N[C@@H](CS)C(=O)O; X6 = NC(=O)[C@H](CS)NC(=O)CNC(=O)[C@H](CS)NC(=O)C*; X12 = NC(=O)[C@H](CS)NC(=O)CNC(=O)CNC(=O)C*; NMeF = CN[C@@H](Cc1ccccc1)C(=O)O; hCys = N[C@@H](CCS)C(=O)O

The test deals with T1, somatostatin receptor (Rattus norvegicus, UniProt P30680).
T1 construct: endogenous in cells; host or cells: AR42J rat pancreatic tumor cell line (membrane preparation)
T1 sequence (P30680 whole entry): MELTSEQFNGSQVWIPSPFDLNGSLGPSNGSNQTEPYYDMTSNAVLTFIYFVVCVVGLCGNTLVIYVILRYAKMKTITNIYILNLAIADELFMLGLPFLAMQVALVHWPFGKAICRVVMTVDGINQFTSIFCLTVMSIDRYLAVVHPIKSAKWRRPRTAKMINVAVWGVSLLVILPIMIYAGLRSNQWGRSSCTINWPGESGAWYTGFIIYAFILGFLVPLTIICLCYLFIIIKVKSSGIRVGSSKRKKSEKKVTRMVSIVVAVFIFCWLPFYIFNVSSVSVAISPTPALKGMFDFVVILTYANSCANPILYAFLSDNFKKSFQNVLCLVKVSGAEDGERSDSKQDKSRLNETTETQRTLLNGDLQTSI
As to the kind of experiment: Inhibition of binding of (125I-Tyr11)somatostatin-14 to AR42J rat pancreatic tumor cell membranes. The following applies: 0.5 nM (125I-Tyr11)somatostatin-14, 25 min at 30° C., read-out: K1 (inhibition constant). As to the method:
Inhibition of Binding of (^125 I-Tyr^11)somatostatin-14 to AR42J Rat Pancreatic Tumor Cell Membranes
The rat pancreatic tumor cell line AR42J which expresses the somatostatin receptor was cultured in Dulbecco's minimal essential media (DMEM) supplemented with 10% fetal bovine serum (FBS) and 8 mM glutamine in a humidified 5% CO2 atmosphere at 37° C. in T-flasks. Harvested cells were homogenized in cold 50 mM Tris-HCl buffer (pH 7.4) and the homogenate then centrifuged at 39,000 g for 10 min at 4° C. Pellets were washed once with buffer and then resuspended in an ice-cold solution of 10 mM Tris-HCl (pH 7.4). Equal aliquots of this cell membrane preparation were incubated with (^125 I-Tyr^11)somatostatin-14 (at a final concentration of 0.5 nM and 750,000 cpm/mL, at a specific activity of 2000 Ci/mmol, Amersham, Arlington Heights, Ill.) and peptide at a final concentration of from 10^-11 M to 10^-6 M in a solution of 50 mM HEPES (pH 7.4) containing 1% bovine serum albumin (BSA), 5 mM MgCl2, Trasylol (200,000 International Units), bacitracin (0.02 mg/mL) and phenylmethylsulfonylfluoride (0.02 mg/mL) for 25 min at 30° C. Using a filtration manifold, this mixture was filtered through a polyethyleneimine-washed GC/F filter (Whatman, Maidstone, England), and the residue remaining on the filter washed thrice with 5 mL cold HEPES buffer. The filter and a sample of the filter washings were then counted in a gamma counter. To assess non-specific binding, the assay was performed in the presence of unlabeled somatostatin-14 at 200 nM. Data analysis including Hill plots of the data provided inhibition constants (see Bylund & Yamamura, "Methods of receptor binding", in Methods in Neurotransmitter Receptor Analysis, Yamamura et al., eds., Raven Press: New York, 1990).
For the compound `CC(C)[C@@H]1NC(=O)[C@H](CCCCN)NC(=O)[C@@H](Cc2c[nH]c3ccccc23)NC(=O)[C@H](Cc2ccc(O)cc2)NC(=O)[C@H](Cc2ccccc2)N(C)C(=O)[C@H](CCSCC(=O)N[C@@H](CS)C(=O)NCC(=O)N[C@@H](CS)C(=O)O)NC1=O` [cyclo.(N-CH3)FYWD KV.Hcy(CH2 CO.CGC)] (cyclo(KV[hCys](X5)[NMeF]Y[dW])), the Ki came out at 1.8 nM. Take `CC(C)[C@@H]1NC(=O)[C@H](CCCCN)NC(=O)[C@@H](Cc2c[nH]c3ccccc23)NC(=O)[C@H](Cc2ccc(O)cc2)NC(=O)[C@H](Cc2ccccc2)N(C)C(=O)[C@H](CCSCC(=O)NCCCC[C@H](N)C(=O)NCC(=O)N[C@@H](CS)C(N)=O)NC1=O` [cyclo.(N-CH3)FYWD KV.Hcy(CH2 CO.(ε-K)GC.amide)] (cyclo([NMeF]Y[dW]KV[hCys](X7))): the Ki was 2 nM. For `CC(=O)NCSC[C@H](NC(=O)CNC(=O)[C@H](CSCNC(C)=O)NC(=O)CSCC[C@@H]1NC(=O)[C@H](C(C)C)NC(=O)[C@H](CCCCN)NC(=O)[C@@H](Cc2c[nH]c3ccccc23)NC(=O)[C@H](Cc2ccc(O)cc2)NC(=O)[C@H](Cc2ccccc2)N(C)C1=O)C(N)=O` [cyclo.(N-CH3)FYWD KV.Hcy(CH2 CO.CAcm GCAcm.amide)] (cyclo(KV[hCys](X13)[NMeF]Y[dW])), the Ki was 0.79 nM. In the case of `CC(C)[C@@H]1NC(=O)[C@H](CCCCN)NC(=O)[C@@H](Cc2c[nH]c3ccccc23)NC(=O)[C@H](Cc2ccc(O)cc2)NC(=O)[C@H](Cc2ccccc2)N(C)C(=O)[C@H](CCSCC(=O)NCC(=O)NCC(=O)N[C@@H](CS)C(N)=O)NC1=O` [cyclo.(N-CH3)FYWD KV.Hcy(CH2 CO.GGC.amide)] (cyclo([NMeF]Y[dW]KV[hCys](X12))), the Ki stood at 2.4 nM. With `CC(C)[C@@H]1NC(=O)[C@H](CCCCN)NC(=O)[C@@H](Cc2c[nH]c3ccccc23)NC(=O)[C@H](Cc2ccc(O)cc2)NC(=O)[C@H](Cc2ccccc2)N(C)C(=O)[C@H](CCSCC(=O)N[C@@H](CCCCN)C(=O)NCCCC[C@H](N)C(=O)NCC(=O)N[C@@H](CS)C(N)=O)NC1=O` [cyclo.(N-CH3)FYWD KV.Hcy(CH2 CO.K(ε-K)GC.amide)] (cyclo([NMeF]Y[dW]KV[hCys](X11))), the Ki was found to be 0.65 nM.

Regarding `CC(C)[C@@H]1NC(=O)[C@H](CCCCN)NC(=O)[C@@H](Cc2c[nH]c3ccccc23)NC(=O)[C@H](Cc2ccc(O)cc2)NC(=O)[C@H](Cc2ccccc2)N(C)C(=O)[C@H](CCSCC(=O)N[C@@H](CS)C(=O)NCC(=O)N[C@@H](CS)C(N)=O)NC1=O` [cyclo.(N-CH3)FYWD KV.Hcy(CH2 CO.CGC.amide)] (cyclo([NMeF]Y[dW]KV[hCys](X6))), the Ki came to 1.5 nM.
